Reference: patent US8598202B2, “Aryl-hydroxyethylamino-pyrimidines and triazines as modulators of fatty acid amide hydrolase” (Janssen Pharmaceutica NV, priority 2008, dated 2013)
Where a name gives a salt, the structure may show the parent alone. Read-outs that look alike come from different tables or passages of the source.

Key:
[1] = biological target: T1, Rat FAAH-1 (Rattus norvegicus, UniProt P97612); assay: Assay Method 2: rat FAAH-1 assay, 3H-anandamide hydrolysis in homogenate of SK-N-MC cells transfected with rat FAAH
T1 sequence (P97612 1-579): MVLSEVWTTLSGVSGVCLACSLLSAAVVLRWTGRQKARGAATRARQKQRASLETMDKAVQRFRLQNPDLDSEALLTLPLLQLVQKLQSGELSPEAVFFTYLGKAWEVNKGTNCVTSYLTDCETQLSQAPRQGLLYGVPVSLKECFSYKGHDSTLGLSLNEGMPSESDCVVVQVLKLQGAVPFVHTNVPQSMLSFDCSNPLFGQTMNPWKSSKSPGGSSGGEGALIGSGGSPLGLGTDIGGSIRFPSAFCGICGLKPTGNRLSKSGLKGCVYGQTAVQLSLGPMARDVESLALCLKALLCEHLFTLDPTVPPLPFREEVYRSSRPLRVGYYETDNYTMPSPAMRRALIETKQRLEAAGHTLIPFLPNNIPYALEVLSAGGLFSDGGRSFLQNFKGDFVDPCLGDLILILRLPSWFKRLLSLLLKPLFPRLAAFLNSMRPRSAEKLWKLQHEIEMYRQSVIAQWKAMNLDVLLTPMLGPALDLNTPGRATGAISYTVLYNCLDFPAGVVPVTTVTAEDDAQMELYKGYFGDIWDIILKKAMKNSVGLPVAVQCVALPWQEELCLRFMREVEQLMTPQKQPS

[2] = biological target: T2, FAAH (Homo sapiens, UniProt O00519); assay: Assay Method 1: FAAH assay, 3H-anandamide hydrolysis in homogenate of T84 cells or SK-N-MC cells transfected with human FAAH
T2 sequence (O00519 1-579): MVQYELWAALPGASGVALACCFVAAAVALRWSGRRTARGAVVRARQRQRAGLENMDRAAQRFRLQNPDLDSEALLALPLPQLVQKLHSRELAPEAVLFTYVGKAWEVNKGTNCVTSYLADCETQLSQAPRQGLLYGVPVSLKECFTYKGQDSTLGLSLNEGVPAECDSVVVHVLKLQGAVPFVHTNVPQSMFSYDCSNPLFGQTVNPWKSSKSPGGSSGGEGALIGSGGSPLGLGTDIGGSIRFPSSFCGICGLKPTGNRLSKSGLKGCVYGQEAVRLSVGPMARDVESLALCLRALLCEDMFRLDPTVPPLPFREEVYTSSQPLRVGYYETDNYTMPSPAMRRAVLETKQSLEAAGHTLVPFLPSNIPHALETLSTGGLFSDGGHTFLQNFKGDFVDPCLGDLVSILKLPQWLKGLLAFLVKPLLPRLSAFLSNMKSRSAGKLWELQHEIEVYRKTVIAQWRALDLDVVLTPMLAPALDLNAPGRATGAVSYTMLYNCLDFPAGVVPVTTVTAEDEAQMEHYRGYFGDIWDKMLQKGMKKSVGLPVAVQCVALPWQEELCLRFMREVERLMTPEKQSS

[3] = read-out: Assay 2 IC50, Table 2, Comparative Examples, rat FAAH-1
[4] = read-out: Assay 1 IC50, Table 2, Comparative Examples, human FAAH

Row | Compound | IC50 [1] [nM] | IC50 [2] [nM] | IC50 [1, 3] [nM] | IC50 [2, 4] [nM]
1 | COc1ccc(C(O)CNc2cc(-c3ccc(C(F)(F)F)c(Cl)c3)ncn2)cc1OC (centres unmarked) [Example 202, 2-({6-[3-Chloro-4-(trifluoromethyl)phenyl]pyrimidin-4-yl}amino)-1-(3,4-dimethoxyphenyl)ethanol] | 100 | 225 | – | –
2 | N#Cc1cccc(C(O)CNc2cc(-c3ccc(C(F)(F)F)c(Cl)c3)ncn2)c1 (centres unmarked) [Example 206, 3-[2-({6-[3-Chloro-4-(trifluoromethyl)phenyl]pyrimidin-4-yl}amino)-1-hydroxyethyl]benzonitrile] | 15 | 25 | – | –
3 | CC(O)c1ccc(-c2cc(NC[C@H](O)c3ccccc3)ncn2)cc1F (stereo partly drawn) [Example 129, (1R)-2-({6-[3-Fluoro-4-(1-hydroxyethyl)phenyl]pyrimidin-4-yl}amino)-1-phenylethanol trifluoroacetic acid salt] | 120 | 16 | – | –
4 | OC(CNc1cc(-c2ccc(OC(F)(F)F)cc2)ncn1)c1ccncc1 (centres unmarked) [Example 125, 1-Pyridin-4-yl-2-[(6-{4-[(trifluoromethyl)oxy]phenyl}pyrimidin-4-yl)amino]ethanol] | 5000 | 890 | – | –
5 | O[C@@H](CNc1cc(-c2ccc(C(F)(F)F)c(Cl)c2)nc(NC2CC2)n1)c1ccccc1 [Example 162, (1R)-2-({6-[3-Chloro-4-(trifluoromethyl)phenyl]-2-(cyclopropylamino)pyrimidin-4-yl}amino)-1-phenylethanol trifluoroacetic acid salt] | 130 | 570 | – | –
6 | OC(CNc1cc(-c2c(F)cccc2F)ncn1)c1ccccc1 (centres unmarked) [CE4, 2-[6-(2,6-Difluoro-phenyl)-pyrimidin-4-ylamino]-1-phenyl-ethanol, reference compound] | – | – | > 10000 | > 10000
7 | CCOc1ccc(-c2cc(NC[C@H](O)c3ccccc3)ncn2)cn1 [Example 64, (1R)-2-{[6-(6-Ethoxypyridin-3-yl)pyrimidin-4-yl]amino}-1-phenylethanol] | 220 | 50 | – | –
8 | O[C@@H](CNc1cc(-c2ccc(Cl)c(Cl)c2)ncn1)c1ccccc1 [Example 95, (1R)-2-{[6-(3,4-Dichlorophenyl)-pyrimidin-4-yl]amino}-1-phenylethanol] | 66 | 18 | – | –
9 | O[C@@H](CNc1cc(-c2cc3cc(OC(F)(F)F)ccc3s2)ncn1)c1ccccc1 [Example 185, (1R)-1-Phenyl-2-({6-[5-(trifluoromethoxy)-1-benzothiophen-2-yl]pyrimidin-4-yl}amino)ethanol trifluoroacetic acid salt] | 90 | 20 | – | –
10 | O=S(=O)(c1ccc(-c2cc(NC[C@H](O)c3ccccc3)ncn2)cc1)N1CCSCC1 [Example 172, (1R)-1-Phenyl-2-({6-[4-(thiomorpholin-4-ylsulfonyl)phenyl]pyrimidin-4-yl}amino)ethanol] | 1500 | 8000 | – | –
11 | COc1cc(C(O)CNc2cc(-c3ccc(OC(F)(F)F)cc3)ncn2)ccc1O (centres unmarked) [Example 112, 4-{1-Hydroxy-2-[(6-{4-[(trifluoromethyl)oxy]phenyl}pyrimidin-4-yl)amino]ethyl}-2-(methyloxy)phenol] | 760 | 524 | – | –
12 | OC(CNc1cc(-c2cccs2)ncn1)c1ccccc1 (centres unmarked) [CE5, 1-Phenyl-2-(6-thiophen-2-yl-pyrimidin-4-ylamino)-ethanol, reference compound] | – | – | > 10000 | > 10000
13 | CC(C)(C)NS(=O)(=O)c1ccc(-c2cc(NC[C@H](O)c3ccccc3)ncn2)cc1 [Example 171, N-tert-Butyl-4-(6-{[(2R)-2-hydroxy-2-phenylethyl]amino}pyrimidin-4-yl)benzenesulfonamide] | > 10000 | 1600 | – | –
14 | O[C@@H](CNc1cc(-c2cnc(N3CCOCC3)nc2)ncn1)c1ccccc1 [Example 69, (1R)-2-[(2′-Morpholin-4-yl-4,5′-bipyrimidin-6-yl)amino]-1-phenylethanol] | > 10000 | 900 | – | –
15 | O=[N+]([O-])c1ccc(-c2cc(NCC(O)c3ccccc3)ncn2)cc1 (centres unmarked) [Example 5, 2-{[6-(4-Nitrophenyl)pyrimidin-4-yl]amino}-1-phenylethanol trifluoroacetic acid salt] | 153 | 132 | – | –
16 | OCCNc1nc(NC[C@H](O)c2ccccc2)cc(-c2ccc(C(F)(F)F)c(Cl)c2)n1 [Example 160, (1R)-2-({6-[3-Chloro-4-(trifluoromethyl)phenyl]-2-[(2-hydroxyethyl)amino]pyrimidin-4-yl}amino)-1-phenylethanol trifluoroacetic acid salt] | 290 | 150 | – | –
17 | C[C@H](Nc1cc(-c2ccc(OC(F)(F)F)cc2)ncn1)[C@H](O)c1ccccc1 [Example 119, (1R,2S)-1-Phenyl-2-[(6-{4-[(trifluoromethyl)oxy]phenyl}pyrimidin-4-yl)amino]propan-1-ol] | 55 | 17 | – | –
18 | OC(CNc1cc(-c2ccc(C(F)(F)F)c(Cl)c2)ncn1)c1ccc(-c2ccccc2)cc1 (centres unmarked) [Example 195, 1-Biphenyl-4-yl-2-({6-[3-chloro-4-(trifluoromethyl)phenyl]pyrimidin-4-yl}amino)ethanol] | 400 | 10 | – | –
19 | N#Cc1ccc(C(O)CNc2cc(-c3ccc(C(F)(F)F)c(Cl)c3)ncn2)cc1 (centres unmarked) [Example 191, 4-[2-({6-[3-Chloro-4-(trifluoromethyl)phenyl]pyrimidin-4-yl}amino)-1-hydroxyethyl]benzonitrile] | 7 | 19 | – | –
20 | OC(CNc1cc(-c2ccsc2)ncn1)c1ccccc1 (centres unmarked) [CE7, 1-Phenyl-2-(6-thiophen-3-yl-pyrimidin-4-ylamino)-ethanol, reference compound] | – | – | > 10000 | > 10000

Other lines, results leading:

Row | IC50 [1] [nM] | IC50 [2] [nM] | IC50 [1, 3] [nM] | IC50 [2, 4] [nM] | Compound
21 | 985 | 92 | – | – | CC(C)(C#N)c1ccc(-c2cc(NC[C@H](O)c3ccccc3)ncn2)cc1 [Example 50, 2-[4-(6-{[(2R)-2-Hydroxy-2-phenylethyl]amino}pyrimidin-4-yl)phenyl]-2-methylpropanenitrile trifluoroacetic acid salt]
22 | 22 | 32 | – | – | COc1cccc(C(O)CNc2cc(-c3ccc(OC(F)(F)F)cc3)ncn2)c1 (centres unmarked) [Example 117]
23 | 1000 | 240 | – | – | OC(CNc1cc(-c2ccc(C(F)(F)F)c(Cl)c2)ncn1)c1cc(-c2ccc(Cl)cc2Cl)no1 (centres unmarked) [Example 215, 2-[6-(3-Chloro-4-trifluoromethyl-phenyl)-pyrimidin-4-ylamino]-1-[3-(2,4-dichloro-phenyl)-isoxazol-5-yl]-ethanol]
24 | 80 | 32 | – | – | CN(C)c1nc(NC[C@H](O)c2ccccc2)cc(-c2ccc(C(F)(F)F)c(Cl)c2)n1 [Example 101, (1R)-2-({6-[3-Chloro-4-(trifluoromethyl)phenyl]-2-(dimethylamino)pyrimidin-4-yl}amino)-1-phenylethanol trifluoroacetic acid salt]
25 | > 10000 | > 10000 | – | – | OC(CNc1cc(-c2ccc(C(F)(F)F)c(Cl)c2)ncn1)c1nc2ccccc2s1 (centres unmarked) [Example 216, 1-Benzothiazol-2-yl-2-[6-(3-chloro-4-trifluoromethyl-phenyl)-pyrimidin-4-ylamino]-ethanol]
26 | 181 | 32 | – | – | Cc1ccc(-c2cc(NC[C@H](O)c3ccccc3)ncn2)cc1F [Example 20, (1R)-2-{[6-(3-Fluoro-4-methylphenyl)pyrimidin-4-yl]amino}-1-phenylethanol trifluoroacetic acid salt]
27 | 665 | 68 | – | – | O=S(=O)(c1ccc(-c2cc(NC[C@H](O)c3ccccc3)ncn2)cc1)N1CCCC1 [Example 80, (1R)-1-Phenyl-2-({6-[4-(Pyrrolidin-1-ylsulfonyl)phenyl]pyrimidin-4-yl}amino)ethanol]
28 | 58 | 130 | – | – | O[C@@H](CNc1ncnc(-c2ccc(C(F)(F)F)c(Cl)c2)n1)c1ccccc1 [Example 104, (1R)-2-({4-[3-Chloro-4-(trifluoromethyl)phenyl]-1,3,5-triazin-2-yl}amino)-1-phenylethanol trifluoroacetic acid salt]
